This note sets out measurements from patent publication US8426424B2, “Certain substituted amides, method of making, and method of use thereof” (CGI Pharmaceuticals, Inc., priority 2008, dated 2013).

The compound `Cc1c(NC(=O)c2cc3c(s2)C2CCC3C2)cccc1-c1cn(C)c(=O)c(Nc2ccc(C3C(=O)N(C)CCN3C)cc2)n1` (stereo not shown) [1q, N-(3-(6-(4-(1,4-Dimethyl-3-oxopiperazin-2-yl)phenylamino)-4-methyl-5-oxo-4,5-dihydropyrazin-2-yl)-2-methylphenyl)-4,5,6,7-tetrahydro-4,7-methanobenzo[b]thiophene-2-carboxamide] returned a melting point of 178 to 179 °C.

As usually defined, the melting point is the temperature of the solid-liquid transition.
